Measured values reported in PubChem BioAssay (NCI).
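Five compound concentrations were applied to cells in 96-well plates for 48 hours; endpoints were derived by simple linear interpolation of the resulting dose-response curve. TGI: concentration producing complete growth inhibition.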

Tests used:
Assay in all cases: DTP human tumour cell line panel, 48 h
786-0 renal = system: 786-0 renal
A549 NSCLC = system: A549 NSCLC
ACHN renal = system: ACHN renal
BT-549 breast = system: BT-549 breast
CAKI-1 renal = system: CAKI-1 renal
CCRF-CEM leukemia = system: CCRF-CEM leukemia
COLO 205 colon = system: COLO 205 colon
DU-145 prostate = system: DU-145 prostate
EKVX NSCLC = system: EKVX NSCLC
HCC-2998 colon = system: HCC-2998 colon
HCT-116 colon = system: HCT-116 colon
HCT-15 colon = system: HCT-15 colon
HL-60(TB) leukemia = system: HL-60(TB) leukemia
HOP-62 NSCLC = system: HOP-62 NSCLC
HOP-92 NSCLC = system: HOP-92 NSCLC
HS 578T breast = system: HS 578T breast
HT29 colon = system: HT29 colon
IGROV1 ovarian = system: IGROV1 ovarian
K-562 leukemia = system: K-562 leukemia
KM12 colon = system: KM12 colon
LOX IMVI melanoma = system: LOX IMVI melanoma
M14 melanoma = system: M14 melanoma
MALME-3M melanoma = system: MALME-3M melanoma
MCF7 breast = system: MCF7 breast
MDA-MB-231 breast = system: MDA-MB-231 breast
MDA-MB-435 = system: MDA-MB-435
MDA-N = system: MDA-N
MOLT-4 leukemia = system: MOLT-4 leukemia
NCI-H226 lung = system: NCI-H226 lung
NCI-H23 lung = system: NCI-H23 lung
NCI-H460 lung = system: NCI-H460 lung
NCI-H522 lung = system: NCI-H522 lung
NCI/ADR-RES ovarian = system: NCI/ADR-RES ovarian
OVCAR-3 ovarian = system: OVCAR-3 ovarian
OVCAR-4 ovarian = system: OVCAR-4 ovarian
OVCAR-5 ovarian = system: OVCAR-5 ovarian
OVCAR-8 ovarian = system: OVCAR-8 ovarian
PC-3 prostate = system: PC-3 prostate
RPMI-8226 leukemia = system: RPMI-8226 leukemia
RXF 393 renal = system: RXF 393 renal
SF-268 CNS = system: SF-268 CNS
SF-295 CNS = system: SF-295 CNS
SF-539 CNS = system: SF-539 CNS
SK-MEL-2 melanoma = system: SK-MEL-2 melanoma
SK-MEL-28 melanoma = system: SK-MEL-28 melanoma
SK-MEL-5 melanoma = system: SK-MEL-5 melanoma
SK-OV-3 ovarian = system: SK-OV-3 ovarian
SN12C renal = system: SN12C renal
SNB-19 CNS = system: SNB-19 CNS
SNB-75 CNS = system: SNB-75 CNS
SR leukemia = system: SR leukemia
SW-620 colon = system: SW-620 colon
T-47D breast = system: T-47D breast
TK-10 renal = system: TK-10 renal
U251 CNS = system: U251 CNS
UACC-257 melanoma = system: UACC-257 melanoma
UACC-62 melanoma = system: UACC-62 melanoma
UO-31 renal = system: UO-31 renal
A498 renal = system: A498 renal

O=C(N/N=C/c1ccc([N+](=O)[O-])cc1)Nc1ccc(Br)cc1
TGI (786-0 renal): > 100 µM | TGI (A549 NSCLC): > 100 µM | TGI (ACHN renal): > 100 µM | TGI (BT-549 breast): > 100 µM | TGI (CAKI-1 renal): > 100 µM | TGI (CCRF-CEM leukemia): 84.5 µM | TGI (COLO 205 colon): > 100 µM | TGI (DU-145 prostate): > 100 µM | TGI (EKVX NSCLC): > 100 µM | TGI (HCC-2998 colon): 90.9 µM | TGI (HCT-116 colon): > 100 µM | TGI (HCT-15 colon): > 100 µM | TGI (HL-60(TB) leukemia): > 100 µM | TGI (HOP-62 NSCLC): > 100 µM | TGI (HOP-92 NSCLC): > 100 µM | TGI (HS 578T breast): > 100 µM | TGI (HT29 colon): > 100 µM | TGI (IGROV1 ovarian): > 100 µM | TGI (K-562 leukemia): > 100 µM | TGI (KM12 colon): > 100 µM | TGI (LOX IMVI melanoma): > 100 µM | TGI (M14 melanoma): > 100 µM | TGI (MALME-3M melanoma): > 100 µM | TGI (MCF7 breast): > 100 µM | TGI (MDA-MB-231 breast): > 100 µM | TGI (MDA-MB-435): > 100 µM | TGI (MDA-N): > 100 µM | TGI (MOLT-4 leukemia): > 100 µM | TGI (NCI-H226 lung): > 100 µM | TGI (NCI-H23 lung): > 100 µM | TGI (NCI-H460 lung): > 100 µM | TGI (NCI-H522 lung): > 100 µM | TGI (NCI/ADR-RES ovarian): > 100 µM | TGI (OVCAR-3 ovarian): > 100 µM | TGI (OVCAR-4 ovarian): > 100 µM | TGI (OVCAR-5 ovarian): > 100 µM | TGI (OVCAR-8 ovarian): > 100 µM | TGI (PC-3 prostate): > 100 µM | TGI (RPMI-8226 leukemia): > 100 µM | TGI (RXF 393 renal): > 100 µM | TGI (SF-268 CNS): > 100 µM | TGI (SF-295 CNS): > 100 µM | TGI (SF-539 CNS): > 100 µM | TGI (SK-MEL-2 melanoma): > 100 µM | TGI (SK-MEL-28 melanoma): > 100 µM | TGI (SK-MEL-5 melanoma): > 100 µM | TGI (SK-OV-3 ovarian): > 100 µM | TGI (SN12C renal): > 100 µM | TGI (SNB-19 CNS): > 100 µM | TGI (SNB-75 CNS): > 100 µM | TGI (SR leukemia): > 100 µM | TGI (SW-620 colon): > 100 µM | TGI (T-47D breast): > 100 µM | TGI (TK-10 renal): > 100 µM | TGI (U251 CNS): > 100 µM | TGI (UACC-257 melanoma): > 100 µM | TGI (UACC-62 melanoma): > 100 µM | TGI (UO-31 renal): > 100 µM

COc1ccc(NC(C)=O)c(C(O)CCNC(C)=O)c1 (configuration not stated)
TGI (786-0 renal): > 100 µM | TGI (A498 renal): > 100 µM | TGI (A549 NSCLC): > 100 µM | TGI (ACHN renal): > 100 µM | TGI (BT-549 breast): > 100 µM | TGI (CAKI-1 renal): > 100 µM | TGI (CCRF-CEM leukemia): > 100 µM | TGI (COLO 205 colon): > 100 µM | TGI (DU-145 prostate): > 100 µM | TGI (EKVX NSCLC): > 100 µM | TGI (HCT-116 colon): > 100 µM | TGI (HCT-15 colon): > 100 µM | TGI (HL-60(TB) leukemia): > 100 µM | TGI (HOP-92 NSCLC): > 100 µM | TGI (HS 578T breast): > 100 µM | TGI (HT29 colon): > 100 µM | TGI (IGROV1 ovarian): > 100 µM | TGI (KM12 colon): > 100 µM | TGI (LOX IMVI melanoma): > 100 µM | TGI (M14 melanoma): > 100 µM | TGI (MCF7 breast): > 100 µM | TGI (MDA-MB-231 breast): > 100 µM | TGI (MDA-MB-435): > 100 µM | TGI (MDA-N): > 100 µM | TGI (MOLT-4 leukemia): > 100 µM | TGI (NCI-H226 lung): > 100 µM | TGI (NCI-H23 lung): > 100 µM | TGI (NCI-H460 lung): > 100 µM | TGI (NCI-H522 lung): > 100 µM | TGI (NCI/ADR-RES ovarian): > 100 µM | TGI (OVCAR-3 ovarian): > 100 µM | TGI (OVCAR-4 ovarian): > 100 µM | TGI (OVCAR-5 ovarian): > 100 µM | TGI (OVCAR-8 ovarian): > 100 µM | TGI (PC-3 prostate): > 100 µM | TGI (RPMI-8226 leukemia): > 100 µM | TGI (RXF 393 renal): > 100 µM | TGI (SF-268 CNS): > 100 µM | TGI (SF-295 CNS): > 100 µM | TGI (SF-539 CNS): > 100 µM | TGI (SK-MEL-2 melanoma): > 100 µM | TGI (SK-MEL-5 melanoma): > 100 µM | TGI (SK-OV-3 ovarian): > 100 µM | TGI (SN12C renal): > 100 µM | TGI (SNB-19 CNS): > 100 µM | TGI (SNB-75 CNS): > 100 µM | TGI (SR leukemia): > 100 µM | TGI (SW-620 colon): > 100 µM | TGI (T-47D breast): > 100 µM | TGI (TK-10 renal): > 100 µM | TGI (U251 CNS): > 100 µM | TGI (UACC-257 melanoma): > 100 µM | TGI (UACC-62 melanoma): > 100 µM | TGI (UO-31 renal): > 100 µM
